Test results published in patent US9624502B2, “Methods of controlling plant seed and organ size” (PLANT BIOSCIENCE LIMITED, priority 2007, dated 2017).
Where a SMILES comes first, the peptide text is derived from it. The star is where a group is joined. Cbz = O=C(OCc1ccccc1)*

How the values were obtained:
da1-1 mutant seedlings = experiment: Seedling establishment and growth on MS medium with ABA, da1-1 mutant; assay type: in vivo, Arabidopsis thaliana
Description: (§1) (A) DA1 gene structure, showing the mutated sites of da1-1, sod1-1, sod1-2, and sod1-3 alleles. The start codon (ATG) and the stop codon (TGA) are indicated. Closed boxes indicate the coding sequence and lines between boxes indicate introns. T-DNA insertion sites (da1-ko1, da1-ko2 and da1-ko3) in DA1 gene are shown. (B to G) DA1 promoter activity monitored by pDA1::GUS transgene expression. GUS staining in seedlings (B and C), an embryo (D), roots (E), and petals (F and G). (H and I) The flowers of Col-0 (H) and da1-ko1dar1-1 double mutant (I). (J) Siliques of Col-0 (left) and da1-ko1dar1-1 double mutant (right). (K) Petal area of Col-0, da1-ko1, dar1-1, da1-ko1dar1-1 double mutants. […] 7 d-old WT seedlings were treated with 10 μm ABA for 2, 4, 6, 18 and 30 hours. (M and N) Wild type Col-0 and da1-1 seeds were grown on MS medium with 2 μm ABA under constant light conditions. […] Scale bars: 1 mm (B, H, I, M, and N), 50 μm (C and E), 0.5 mm (C and J), 0.1 mm (F and G), 0.5 cm (0).
(§2) Relatively high levels of GUS activity were detected in proliferating tissues (FIG. 3c-f). In addition, the DA1 promoter is also active in roots (FIG. 3b, c). Given the effects of hormones on organ growth, we tested whether any major classes of phytohormones (abscisic acid, jasmonic acid, ethylene, auxin, cytokinin, gibberellin, brassinosteroids and glucose) could influence transcription of DA1 gene. […]

[1] = test system: wild type Col-0 seedlings; experiment: Seedling growth on MS medium with ABA, wild type; assay type: in vivo, Arabidopsis thaliana; conditions: 4 d-old seedlings transferred to MS medium with 5 μm ABA for 3 weeks
Description: as §1

DA1 gene = DA1 gene expression after phytohormone treatment, quantitative RT-PCR; assay type: in vivo, Arabidopsis thaliana
Description: as §1, §2

proteasome = experiment: Stability of DA1 protein in cell-free Arabidopsis protein extracts with ATP, Western analysis; assay type: biochemical; conditions: GST-DA1 incubated with Arabidopsis protein extracts and ATP; Western with DA1 antibody
Experimental: This is supported by the observation that detection of DA1 protein with a good specific antibody in plant extracts is very difficult. We therefore tested the stability of DA1 protein in Arabidopsis using DA1 protein expressed in E. coli and cell-free protein extracts from Arabidopsis. Full length DA1 protein expressed and purified as an N-terminal GST fusion protein, was incubated with Arabidopsis protein extracts and ATP, and subjected to Western analysis using a specific DA1 antibody. […] The UIM motifs of DA1 are predicted, based on knowledge of UIM function in animal cells, to be involved in ubiqutination. It may be that DA1 is ubiquitinated and targeted for degradation as part of the mechanism of growth control.

Compound	growth of da1-1 mutant seedlings (da1-1 mutant seedlings; 4 d-old seedlings transferred to MS medium with 5 μm ABA for 3 weeks)	seedling establishment of da1-1 mutant (da1-1 mutant seedlings; seeds grown on MS medium with 2 μm ABA under constant light)	growth of wild type Col-0 seedlings [1]	expression of DA1 (DA1 gene; 7 d-old WT seedlings treated with 10 μm ABA for 2, 4, 6, 18 and 30 hours, quantitative RT-PCR)	expression level of the DA1 gene (transcription) after phytohormone treatment (DA1 gene; major classes of phytohormones tested)	effect on degradation of DA1 protein (proteasome)
CC1=CC(=O)CC(C)(C)[C@@]1(O)/C=C/C(C)=C\C(=O)O [ABA, abscisic acid]	continue to grow	ABA-insensitive seedling establishment	inhibit the growth	slowly induced	induced slowly	
CC(C)C[C@@H](C=O)NC(=O)[C@H](CC(C)C)NC(=O)[C@H](CC(C)C)NC(=O)OCc1ccccc1 [MG132] (Cbz-Leu-Leu-Leu-aldehyde)						abolish this degradation
